Test results reported in patent publication EP2519511B1, “NOVEL PIPERINE DERIVATIVES AS GABA-A RECEPTORS MODULATORS” (Universität Wien, priority 2009, dated 2011).
Values joined by “and” are separate entries in the source; they are usually repeats but may differ in a detail not shown here. Equal entries are not always repeated.

Assays:
[1] = molecular target: human TRPV1 receptor (hTRPV1) (Homo sapiens, UniProt Q8NER1); assay: Activation of cation current through TRPV1 expressed in Xenopus oocytes; format: cell-based; conditions: 300 µM applied to oocytes, Fig. 4
Sequence of human TRPV1 receptor (hTRPV1) (Q8NER1 whole entry): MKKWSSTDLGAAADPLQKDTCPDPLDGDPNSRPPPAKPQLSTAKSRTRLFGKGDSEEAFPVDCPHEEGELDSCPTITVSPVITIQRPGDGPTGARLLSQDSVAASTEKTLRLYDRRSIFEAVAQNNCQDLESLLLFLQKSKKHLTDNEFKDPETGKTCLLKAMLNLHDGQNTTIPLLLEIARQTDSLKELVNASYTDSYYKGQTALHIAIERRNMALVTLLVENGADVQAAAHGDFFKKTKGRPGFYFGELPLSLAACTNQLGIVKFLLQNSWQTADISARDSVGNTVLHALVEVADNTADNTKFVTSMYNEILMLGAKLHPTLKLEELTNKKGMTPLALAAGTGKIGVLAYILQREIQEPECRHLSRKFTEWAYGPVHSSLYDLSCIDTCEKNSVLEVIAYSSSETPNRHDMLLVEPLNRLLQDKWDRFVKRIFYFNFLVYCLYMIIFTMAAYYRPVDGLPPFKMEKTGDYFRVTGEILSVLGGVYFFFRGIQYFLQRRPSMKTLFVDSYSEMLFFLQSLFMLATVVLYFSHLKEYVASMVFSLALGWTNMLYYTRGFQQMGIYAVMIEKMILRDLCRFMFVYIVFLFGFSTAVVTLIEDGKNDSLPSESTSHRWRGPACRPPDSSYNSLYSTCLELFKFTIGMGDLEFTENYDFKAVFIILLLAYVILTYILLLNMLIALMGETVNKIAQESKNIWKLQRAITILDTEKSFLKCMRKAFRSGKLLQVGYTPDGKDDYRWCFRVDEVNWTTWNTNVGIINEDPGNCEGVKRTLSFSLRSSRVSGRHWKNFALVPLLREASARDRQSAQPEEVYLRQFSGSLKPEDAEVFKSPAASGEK
Experimental: cRNA encoding for the human TRPV1 receptor (hTRPV1) was injected into Xenopus oocytes as previously described (Hu et al. 2004).

Male mice (C57BI/6N) [2] = assay: Elevated Plus Maze test (EPM); format: in vivo; conditions: for total distance travelled in the EPM: compared to control
Experimental: (§1) Piperine was isolated from Piper nigrum as described by Zaugg et al. (2010) and obtained from SigmaAldrich (Vienna, Austria), respectively. Piperine derivatives were synthesized as described above. Stock solutions (1mg/10 µl) were prepared in DMSO (Dimethyl Sulfoxide, Sigma, Austria).Working concentrations were adjusted by dilution with 0.9% sodiumchloride. pH was adjusted to 7.2-7.4 with NaOH. For better solubility 3% of Tween80 was added to all solutions. All solutions were freshly prepared every day prior to experiments. Care was taken for equal amounts of DMSO in the actein and control solutions.
(§2) Male mice (C57BI/6N) were obtained from Charles River Laboratories (Germany). For breeding and maintenance mice were group housed with free access to food and water. Temperature was fixed to 23±1 °C and 60% humidity with a 12 h light-dark cycle (lights on 0700-1900 hours). Male mice at 3-6 months age were tested in all experiments. Every effort was taken to minimize the number of animals used (Khom et al., 2010).
The animals's behavior was tested over 5 min on an elevated plus maze 1 m above ground consisting of two closed and two open arms, each 50x5 cm in size (Khom et al., 2010). The test instrument was built from gray PVC; the height of closed arm walls was 20 cm. Illumination was set to 180 lux. Animals were placed in the center, facing an open arm. Analysis of open and closed arm entries and time on open arm was automatically done with Video-Mot 2 equipment and software (Khom et al., 2010).

Male mice (C57BI/6N) [3] = assay: Open Field test (OF); format: in vivo; conditions: 30 mg/kg bodyweight; for effect on total ambulation / total distance: 30 min after i.p. injection, Fig. 11B
Experimental: as §1, §2
Ambulation was tested over 10 min in a 50x50 cm flexfield box equipped with infrared rearing detection. Illumination was set to 150 lux. Animals were video monitored and their explorative behavior was analyzed using the Actimot 2 equipment and software (TSE-systems, Bad Homburg, Germany). Arenas were subdivided into border (up to 8 cm from wall), center (20x20 cm, i.e. 16% of total area), and intermediate area according to the recommendations of EMPRESS (European Mouse Phenotyping Resource of Standardised Screens; http://empress.har.mrc.ac.uk).

[4] = molecular target: GABAA channels composed of α1β2γ2 subunits (Homo sapiens, UniProt P14867+P18507+P47870); assay: Modulation of IGABA, two-microelectrode voltage clamp in Xenopus laevis oocytes; format: cell-based; conditions: α1β2γ2, GABA EC5-10, Fig. 2
Sequence of GABAA channels composed of α1β2γ2 subunits (P14867 28-456): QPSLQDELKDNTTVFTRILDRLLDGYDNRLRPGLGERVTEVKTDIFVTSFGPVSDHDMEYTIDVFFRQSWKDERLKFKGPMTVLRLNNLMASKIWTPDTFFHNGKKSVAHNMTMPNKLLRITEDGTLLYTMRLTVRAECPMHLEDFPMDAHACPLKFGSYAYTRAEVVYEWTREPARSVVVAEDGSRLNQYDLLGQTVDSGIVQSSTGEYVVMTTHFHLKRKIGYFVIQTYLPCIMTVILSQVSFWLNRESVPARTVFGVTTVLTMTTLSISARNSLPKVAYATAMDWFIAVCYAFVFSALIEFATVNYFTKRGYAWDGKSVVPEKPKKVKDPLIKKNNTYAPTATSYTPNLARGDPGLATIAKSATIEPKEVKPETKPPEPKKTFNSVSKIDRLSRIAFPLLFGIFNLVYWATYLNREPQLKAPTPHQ
Sequence of GABAA channels composed of α1β2γ2 subunits (P47870 25-512 limits assumed): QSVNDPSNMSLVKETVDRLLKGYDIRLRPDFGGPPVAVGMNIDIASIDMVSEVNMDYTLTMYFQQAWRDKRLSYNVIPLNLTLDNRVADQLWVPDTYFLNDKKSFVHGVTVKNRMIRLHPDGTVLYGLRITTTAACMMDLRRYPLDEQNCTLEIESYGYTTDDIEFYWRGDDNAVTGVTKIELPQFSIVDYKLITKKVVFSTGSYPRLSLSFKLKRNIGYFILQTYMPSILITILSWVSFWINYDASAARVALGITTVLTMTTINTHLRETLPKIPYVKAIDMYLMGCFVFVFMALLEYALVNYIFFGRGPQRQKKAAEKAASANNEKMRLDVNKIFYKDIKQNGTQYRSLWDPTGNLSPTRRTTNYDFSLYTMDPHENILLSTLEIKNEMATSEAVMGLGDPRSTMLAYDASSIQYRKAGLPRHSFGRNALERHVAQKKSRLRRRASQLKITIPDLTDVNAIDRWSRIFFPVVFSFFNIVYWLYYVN
Sequence of GABAA channels composed of α1β2γ2 subunits (P18507 40-475): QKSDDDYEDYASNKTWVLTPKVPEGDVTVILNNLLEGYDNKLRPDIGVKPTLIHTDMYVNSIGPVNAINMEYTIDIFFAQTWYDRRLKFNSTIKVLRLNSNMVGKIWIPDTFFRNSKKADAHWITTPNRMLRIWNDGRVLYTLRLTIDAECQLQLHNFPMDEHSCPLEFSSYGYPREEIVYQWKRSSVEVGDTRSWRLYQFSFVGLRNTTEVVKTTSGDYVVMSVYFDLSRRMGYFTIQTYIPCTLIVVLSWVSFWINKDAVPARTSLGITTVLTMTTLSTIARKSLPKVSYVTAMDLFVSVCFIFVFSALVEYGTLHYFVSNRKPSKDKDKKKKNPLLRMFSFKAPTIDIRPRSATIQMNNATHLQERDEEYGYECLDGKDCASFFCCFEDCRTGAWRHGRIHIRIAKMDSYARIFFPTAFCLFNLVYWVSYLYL
Experimental: The following paragraphs describe the preparation of oocytes expressing the specific GABAA receptor subtype composed of α1, β2 and γ2 subunits and the subsequent analysis of the concentration-response curves of the stimulation of chloride currents through GABAA receptors (IGABA).
Preparation of stage V-VI oocytes from Xenopus laevis, synthesis of capped off run-off poly(A^+) cRNA transcripts from linearized cDNA templates (pCMV vector) was performed as described (Khom et al. 2006). Briefly, female Xenopus laevis (NASCO, USA) were anaesthetised by exposing them for 15 minutes to a 0.2 % solution of MS-222 (methane sulfonate salt of 3-aminobenzoic acid ethyl ester; Sandoz) before surgically removing parts of the ovaries. Follicle membranes from isolated oocytes were enzymatically digested with 2 mg/ml collagenase (Type 1A, Sigma). One day after isolation, the oocytes were injected with about […] of DEPC- treated water (diethyl pyrocarbonate, Sigma, Germany) containing the different cRNAs (encoding for α1, β2 and γ2 subunits) at a concentration of approximately 300 - 3000 pg/µl/subunit. The amount of cRNA was determined by means of a NanoDrop ND-1000 (Kiskerbiotech, Steinfurt, Germany).
Oocytes were stored at 18°C in ND96 solution (Methfessel et al., 1986). […]
Stimulation of chloride currents by modulators of the GABAA receptor was measured at a GABA concentration eliciting between 5 and 10 % of the maximal current amplitude (EC5-10). The EC5-10 was determined at the beginning of each experiment.
Enhancement of the chloride current was defined as (I(GABA+Comp)/IGABA) - 1, where I(GABA+Comp) is the current response in the presence of a given compound (piperine or piperin derivatives) and IGABA is the control GABA current. […] Statistical significance was calculated using paired Student t-test with a confidence interval of p < 0.05 (Khom et al., 2007). […]

PTZ-induced seizures = assay: Seizure threshold by PTZ tail-vein infusion; format: in vivo, mice; conditions: for effects on seizure threshold: PTZ 30 min after i.p. injection; for seizure threshold: 30 min after i.p. injection
Experimental: as §1, §2
Seizure threshold was determined by PTZ tail-vein infusion on freely moving animals at a rate of 100 µl/min ([…] PTZ in saline, pH 7.4). […] Animals were immediately killed by cervical displacement after the first generalized seizure. The seizure threshold dose was calculated from the infused volume in relation to body weight (Loacker et al. 2007). Piperine and piperine derivatives were applied at doses from 0.1 to 30 mg/kg 30 min before PTZ infusion. Control animals were pretreated with 10 % DMSO in saline containing 3 % Tween 80 (i. e. the solvent for all piperine doses).

SMILES | cation current through TRPV1 receptors [1] | time spent on the open arms (OA) in % of the total time (Male mice (C57BI/6N) [2]; 0.3 mg/kg bodyweight, i.p.) | effect on total ambulation / total distance (Male mice (C57BI/6N) [3]) | modulation of IGABA [4] | effects on seizure threshold (PTZ-induced seizures; Fig. 12) | further results
CC(C)N(C(=O)/C=C/C=C/c1ccc2c(c1)OCO2)C(C)C [SCT-46] | no current was induced |  |  |  |  | 
CCN(CC)C(=O)/C=C/C=C/c1ccc2c(c1)OCO2 [SCT-54] |  |  | no effect on ambulation |  | particularly active at low concentrations | 
O=C(/C=C/C=C/c1ccc2c(c1)OCO2)N1CCCCC1 [piperine, Piperine] |  | 42.7 ± 4.4% |  |  |  | time spent on the open arms (OA) in % of the total time (Male mice (C57BI/6N) [2]; 0.1 mg/kg bodyweight, 30 min after i.p. injection): no significant effect; time spent on the open arms (OA) in % of the total time (Male mice (C57BI/6N) [2]; 1 mg/kg bodyweight, i.p.): 45.6 ± 6.6%; reduction of ambulation compared to control littermates (Male mice (C57BI/6N) [3]; i.p.): more than 50%; traveled distance (total ambulation) (Male mice (C57BI/6N) [3]; i.p.): 16.5 ±3.8 m; seizure threshold (PTZ-induced seizures; 3 mg/kg): 46.2 ± 5.44; seizure threshold (PTZ-induced seizures; 10 mg/kg): 48.7 ± 2.13; seizure threshold (PTZ-induced seizures; 30 mg/kg): 30.3 ± 3.43
CCCCN(CCCC)C(=O)/C=C/C=C/c1ccc2c(c1)OCO2 [SCT-29] | no current was induced | not statistically significant | no effect on ambulation | positive allosteric modulatory effect by enhancing IGABA | particularly active at low concentrations | cation current through TRPV1 receptors ([1]; listed as SCT29): none of the derivatives SCT29, SCT64 or SCT66 induced cation currents

Second part, led by results:

cation current through TRPV1 receptors [1] | SMILES | time spent on the open arms (OA) in % of the total time (Male mice (C57BI/6N) [2]; 0.3 mg/kg bodyweight, i.p.) | effect on total ambulation / total distance (Male mice (C57BI/6N) [3]) | modulation of IGABA [4] | effects on seizure threshold (PTZ-induced seizures; Fig. 12) | further results
no current was induced | CC(C)CN(CC(C)C)C(=O)/C=C/C=C/c1ccc2c(c1)OCO2 [SCT-66] | 40.8 ± 3.2% and 38.1 ± 5.1% | reduced the total distance | positive allosteric modulatory effect by enhancing IGABA |  | cation current through TRPV1 receptors ([1]; listed as SCT66): none of the derivatives SCT29, SCT64 or SCT66 induced cation currents; time spent on the open arms (OA) in % of the total time (Male mice (C57BI/6N) [2]; 3 mg/kg bodyweight, i.p.): 46.5 ± 6.6%; total distance travelled in the EPM (Male mice (C57BI/6N) [2]; i.p.): no significant effect on ambulation; minimal effective dose (PTZ-induced seizures; Mus musculus, ip, 0.5 h, i.p., Fig. 12, read-out: doses of first significant effects on seizure threshold): ≥ 10 mg/kg
no current was induced | CCCN(CCC)C(=O)/C=C/C=C/c1ccc2c(c1)OCO2 [SCT-64] | 41.6 ± 3.2% and 44.2 ± 3.3% | reduced the total distance | positive allosteric modulatory effect by enhancing IGABA | particularly active at low concentrations | cation current through TRPV1 receptors ([1]; listed as SCT64): none of the derivatives SCT29, SCT64 or SCT66 induced cation currents; time spent on the open arms (OA) in % of the total time (Male mice (C57BI/6N) [2]; 10 mg/kg bodyweight, i.p.): 59.6 ± 4.9%; total distance travelled in the EPM (Male mice (C57BI/6N) [2]; i.p.): reducing slightly the total ambulation at doses ≥1 mg/kg bodyweight
no current was induced | CCCCN(CCCC)C(=O)/C=C/C=C/c1cc(OC)c(OC)c(OC)c1 [SCT-68] |  |  |  |  | 
